According to the NIST ThermoML archive (doi:10.1016/j.fluid.2010.03.010):

Settings: Liquid, Vibrating tube method

CCCCn1cc[n+](C)c1.N#CN=C=[N-] [1-butyl-3-methylimidazolium dicyanamide]
Settings	mass density [kg/m3]
293.15 K, 100 kPa	1064.4
293.15 K, 101.33 kPa	1063.73
293.15 K, 250 kPa	1064.4
293.15 K, 500 kPa	1064.5
293.15 K, 1000 kPa	1064.7
293.15 K, 2000 kPa	1065.1
293.15 K, 4990 kPa	1066.2
293.15 K, 10010 kPa	1068.2
293.15 K, 15000 kPa	1070
293.15 K, 20000 kPa	1071.9
293.15 K, 25000 kPa	1073.6
293.15 K, 30000 kPa	1075.4
293.15 K, 35000 kPa	1077.1
293.15 K, 40000 kPa	1078.9
293.15 K, 45000 kPa	1080.5
293.15 K, 50000 kPa	1082.2
293.15 K, 55000 kPa	1083.8
293.15 K, 60000 kPa	1085.4
294.15 K, 101.33 kPa	1063.09
295.15 K, 101.33 kPa	1062.45
296.15 K, 101.33 kPa	1061.81
297.15 K, 101.33 kPa	1061.17
298.15 K, 101.33 kPa	1060.53
299.15 K, 101.33 kPa	1059.89
300.15 K, 101.33 kPa	1059.26
301.15 K, 101.33 kPa	1058.62
302.15 K, 101.33 kPa	1057.99
303.15 K, 100 kPa	1057.9
303.15 K, 101.33 kPa	1057.35
303.15 K, 250 kPa	1057.9
303.15 K, 500 kPa	1058
303.15 K, 1000 kPa	1058.2
303.15 K, 2000 kPa	1058.6
303.15 K, 4990 kPa	1059.8
303.15 K, 10000 kPa	1061.8
303.15 K, 14990 kPa	1063.6
303.15 K, 20010 kPa	1065.5
303.15 K, 25000 kPa	1067.4
303.15 K, 30000 kPa	1069.2
303.15 K, 34990 kPa	1070.9
303.15 K, 40000 kPa	1072.7
303.15 K, 45000 kPa	1074.4
303.15 K, 50000 kPa	1076.1
303.15 K, 55000 kPa	1077.8
303.15 K, 60000 kPa	1079.4
304.15 K, 101.33 kPa	1056.72
305.15 K, 101.33 kPa	1056.09
306.15 K, 101.33 kPa	1055.45
307.15 K, 101.33 kPa	1054.82
308.15 K, 101.33 kPa	1054.19
309.15 K, 101.33 kPa	1053.56
310.15 K, 101.33 kPa	1052.93
311.15 K, 101.33 kPa	1052.31
312.15 K, 101.33 kPa	1051.68
313.15 K, 100 kPa	1051.5
313.15 K, 101.33 kPa	1051.05
313.15 K, 250 kPa	1051.5
313.15 K, 500 kPa	1051.6
313.15 K, 1000 kPa	1051.8
313.15 K, 2000 kPa	1052.3
313.15 K, 4990 kPa	1053.4
313.15 K, 10000 kPa	1055.5
313.15 K, 14990 kPa	1057.4
313.15 K, 20010 kPa	1059.4
313.15 K, 25000 kPa	1061.2
313.15 K, 30000 kPa	1063.1
313.15 K, 35000 kPa	1064.9
313.15 K, 40010 kPa	1066.7
313.15 K, 45000 kPa	1068.4
313.15 K, 50000 kPa	1070.2
313.15 K, 55010 kPa	1071.9
313.15 K, 60000 kPa	1073.6
314.15 K, 101.33 kPa	1050.43
315.15 K, 101.33 kPa	1049.8
316.15 K, 101.33 kPa	1049.18
317.15 K, 101.33 kPa	1048.56
318.15 K, 101.33 kPa	1047.94
319.15 K, 101.33 kPa	1047.32
320.15 K, 101.33 kPa	1046.7
321.15 K, 101.33 kPa	1046.08
322.15 K, 101.33 kPa	1045.46
323.15 K, 100 kPa	1045.2
323.15 K, 101.33 kPa	1044.84
323.15 K, 250 kPa	1045.3
323.15 K, 500 kPa	1045.4
323.15 K, 1000 kPa	1045.6
323.15 K, 2010 kPa	1046
323.15 K, 4990 kPa	1047.3
323.15 K, 10010 kPa	1049.3
323.15 K, 14990 kPa	1051.3
323.15 K, 20010 kPa	1053.3
323.15 K, 25000 kPa	1055.2
323.15 K, 30010 kPa	1057.1
323.15 K, 34990 kPa	1058.9
323.15 K, 40000 kPa	1060.8
323.15 K, 45000 kPa	1062.6
323.15 K, 50000 kPa	1064.4
323.15 K, 55000 kPa	1066.1
323.15 K, 60000 kPa	1067.8
324.15 K, 101.33 kPa	1044.22
325.15 K, 101.33 kPa	1043.61
326.15 K, 101.33 kPa	1042.99
327.15 K, 101.33 kPa	1042.37
328.15 K, 101.33 kPa	1041.76
329.15 K, 101.33 kPa	1041.14
330.15 K, 101.33 kPa	1040.53
331.15 K, 101.33 kPa	1039.92
332.15 K, 101.33 kPa	1039.3
333.15 K, 100 kPa	1039
333.15 K, 101.33 kPa	1038.69
333.15 K, 250 kPa	1039.1
333.15 K, 500 kPa	1039.2
333.15 K, 1000 kPa	1039.4
333.15 K, 2000 kPa	1039.9
333.15 K, 4990 kPa	1041.1
333.15 K, 10000 kPa	1043.2
333.15 K, 15000 kPa	1045.2
333.15 K, 20000 kPa	1047.3
333.15 K, 25000 kPa	1049.2
333.15 K, 30000 kPa	1051.3
333.15 K, 34990 kPa	1053.1
333.15 K, 40000 kPa	1055
333.15 K, 45010 kPa	1056.8
333.15 K, 50000 kPa	1058.6
333.15 K, 55000 kPa	1060.4
333.15 K, 60000 kPa	1062.2
334.15 K, 101.33 kPa	1038.08
335.15 K, 101.33 kPa	1037.47
336.15 K, 101.33 kPa	1036.86
337.15 K, 101.33 kPa	1036.25
338.15 K, 101.33 kPa	1035.64
339.15 K, 101.33 kPa	1035.03
340.15 K, 101.33 kPa	1034.42
341.15 K, 101.33 kPa	1033.82
342.15 K, 101.33 kPa	1033.21
343.15 K, 100 kPa	1032.9
343.15 K, 101.33 kPa	1032.61
343.15 K, 250 kPa	1033
343.15 K, 500 kPa	1033.1
343.15 K, 1000 kPa	1033.3
343.15 K, 2000 kPa	1033.7
343.15 K, 4990 kPa	1035
343.15 K, 10010 kPa	1037.2
343.15 K, 15000 kPa	1039.2
343.15 K, 20010 kPa	1041.4
343.15 K, 25000 kPa	1043.3
343.15 K, 30000 kPa	1045.4
343.15 K, 35010 kPa	1047.3
343.15 K, 40000 kPa	1049.3
343.15 K, 45000 kPa	1051.1
343.15 K, 50000 kPa	1053
343.15 K, 55000 kPa	1054.7
343.15 K, 60000 kPa	1056.6
344.15 K, 101.33 kPa	1032
345.15 K, 101.33 kPa	1031.4
346.15 K, 101.33 kPa	1030.79
347.15 K, 101.33 kPa	1030.19
348.15 K, 101.33 kPa	1029.59
349.15 K, 101.33 kPa	1028.98
350.15 K, 101.33 kPa	1028.38
351.15 K, 101.33 kPa	1027.78
352.15 K, 101.33 kPa	1027.18
353.15 K, 100 kPa	1026.8
353.15 K, 101.33 kPa	1026.58
353.15 K, 250 kPa	1026.9
353.15 K, 500 kPa	1027
353.15 K, 1000 kPa	1027.2
353.15 K, 2000 kPa	1027.7
353.15 K, 5000 kPa	1029
353.15 K, 10000 kPa	1031.3
353.15 K, 15000 kPa	1033.4
353.15 K, 20000 kPa	1035.5
353.15 K, 25000 kPa	1037.5
353.15 K, 30010 kPa	1039.6
353.15 K, 35000 kPa	1041.6
353.15 K, 40000 kPa	1043.6
353.15 K, 45000 kPa	1045.4
353.15 K, 50000 kPa	1047.4
353.15 K, 55000 kPa	1049.2
353.15 K, 60000 kPa	1051
354.15 K, 101.33 kPa	1025.98
355.15 K, 101.33 kPa	1025.38
356.15 K, 101.33 kPa	1024.79
357.15 K, 101.33 kPa	1024.19
358.15 K, 101.33 kPa	1023.59
359.15 K, 101.33 kPa	1022.99
360.15 K, 101.33 kPa	1022.4
361.15 K, 101.33 kPa	1021.8
362.15 K, 101.33 kPa	1021.21
363.15 K, 100 kPa	1020.8
363.15 K, 101.33 kPa	1020.61
363.15 K, 250 kPa	1020.9
363.15 K, 500 kPa	1021
363.15 K, 1000 kPa	1021.3
363.15 K, 2000 kPa	1021.7
363.15 K, 4990 kPa	1023.1
363.15 K, 10000 kPa	1025.4
363.15 K, 14990 kPa	1027.6
363.15 K, 20010 kPa	1029.8
363.15 K, 25010 kPa	1031.8
363.15 K, 30000 kPa	1033.9
363.15 K, 35000 kPa	1035.9
363.15 K, 40000 kPa	1038
363.15 K, 45000 kPa	1039.9
363.15 K, 50000 kPa	1041.8
363.15 K, 55000 kPa	1043.7
363.15 K, 60000 kPa	1045.6
373.15 K, 100 kPa	1014.9
373.15 K, 250 kPa	1015
373.15 K, 500 kPa	1015.1
373.15 K, 1000 kPa	1015.4
373.15 K, 2000 kPa	1015.8
373.15 K, 4990 kPa	1017.2
373.15 K, 10000 kPa	1019.5
373.15 K, 15000 kPa	1021.8
373.15 K, 20000 kPa	1024
373.15 K, 25000 kPa	1026.2
373.15 K, 30000 kPa	1028.3
373.15 K, 35000 kPa	1030.3
373.15 K, 40000 kPa	1032.4
373.15 K, 45000 kPa	1034.4
373.15 K, 50000 kPa	1036.4
373.15 K, 55000 kPa	1038.3
373.15 K, 60000 kPa	1040.2
393.15 K, 100 kPa	1003.2
393.15 K, 250 kPa	1003.3
393.15 K, 500 kPa	1003.4
393.15 K, 1000 kPa	1003.7
393.15 K, 2000 kPa	1004.1
393.15 K, 4990 kPa	1005.6
393.15 K, 10010 kPa	1008.1
393.15 K, 15000 kPa	1010.4
393.15 K, 20010 kPa	1012.8
393.15 K, 25000 kPa	1015
393.15 K, 30000 kPa	1017.2
393.15 K, 35000 kPa	1019.4
393.15 K, 40000 kPa	1021.6
393.15 K, 45000 kPa	1023.6
393.15 K, 50000 kPa	1025.7
393.15 K, 55000 kPa	1027.7
393.15 K, 60000 kPa	1029.6
